Reference: patent US10793522B2, “Sulfonamides as inhibitors of the uptake of extracellular citrate” (Boehringer Ingelheim International GmbH, priority 2016, dated 2020)
pIC50: −log10 of the molar value.

target: hSLC13A5 (Homo sapiens, UniProt Q86YT5); test: HepG2/14C-citrate uptake assay; assay type: cell-based; set-up: HepG2 cells endogenously express hSLC13A5 transporter which is responsible for the uptake of citrate into these cells; endogenous in cells; host or cells: HepG2; details: HepG2 cells endogenously expressing hSLC13A5; Cytostar-T; 14C-citrate ~1.8 μM; incubation over night
Sequence (Q86YT5 whole entry): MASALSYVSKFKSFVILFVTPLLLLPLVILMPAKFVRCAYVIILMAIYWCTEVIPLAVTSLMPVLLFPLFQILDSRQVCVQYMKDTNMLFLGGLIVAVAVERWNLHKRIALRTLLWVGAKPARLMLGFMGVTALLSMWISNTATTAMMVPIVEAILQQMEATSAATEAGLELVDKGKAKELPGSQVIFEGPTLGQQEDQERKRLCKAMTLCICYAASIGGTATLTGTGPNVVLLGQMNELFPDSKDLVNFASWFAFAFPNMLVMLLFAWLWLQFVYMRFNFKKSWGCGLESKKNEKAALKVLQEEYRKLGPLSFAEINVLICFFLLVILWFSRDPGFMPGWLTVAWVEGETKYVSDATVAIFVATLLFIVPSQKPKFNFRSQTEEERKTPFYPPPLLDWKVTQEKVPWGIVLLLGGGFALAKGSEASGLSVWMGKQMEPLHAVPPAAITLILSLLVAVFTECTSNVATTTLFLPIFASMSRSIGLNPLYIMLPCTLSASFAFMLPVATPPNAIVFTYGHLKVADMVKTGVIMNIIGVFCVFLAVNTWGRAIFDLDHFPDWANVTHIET
Text: (4) HepG2/^14C-Citrate Uptake Assay
HepG2 cells endogenously expressing hSLC13A5 were obtained from the Wistar Institute (Knowles et al., Science 1980, 209, 497-499).
HepG2 cells endogenously express hSLC13A5 transporter which is responsible for the uptake of citrate into these cells. […] The uptake of ^14C-citrate into HepG2 cells is monitored using the Cytostar-T assay. This assay format is based on the imported radioactive citrate brought into proximity with the scintillant contained within the base of the plate by virtue of the biological processes within the cells. The radioactive decay is converted to a light signal based on the integration of the scintillation matrix into the assay plate.
Method: ^14C-Citrate Uptake Assay
Starting from 10 mM stock solutions in 100% DMSO, compounds are diluted in pure DMSO using the appropriate dilution steps. Prior to the uptake assay, 400 μL assay medium+4.8 μL compound solution (or pure DMSO for non-inhibited control wells) are mixed (final DMSO concentration in the assay: 1% (v/v)) ^14C-citrate working solution (volumes required per 96-well):
The HepG2 cells are cultivated in cell culture medium (EMEM+10% fetal calf serum+1×NEAA and 10 mM L-Glutamin) For the assay, the medium of the confluent cultures is discarded and the cells are washed with DPBS w/o Mg^2+ w/o Ca^2+. The cells are detached by the addition of 1.0 mL 2× Trypsin in DPBS w/o Mg^2+ w/o Ca^2+ with 7.5 mM EDTA per 75 cm^2 culture flask for up to 3 minutes at 37° C. and resuspended in 10 mL cell culture medium. Following cell counting, 100,000 cells/well are seeded in a volume of 200 μL into Cytostar-T Scintillating 96-well microplates. After overnight incubation in a humid cell culture incubator at 37° C., 5% CO2, the cell culture medium is carefully aspirated and the cells are incubated with 200 μL prewarmed (37° C.) assay medium (50% DMEM+50% Ham's F-12+15 mM HEPES (pH 7.4) (medium contains 15.5 m M D(+)-glucose) per well for at least 1 h prior to the experiment.
Immediately prior to uptake assay, the assay medium is carefully removed and 100 μL test compound dilution is added to each well (n=3).
Following a 20 min incubation at 37° C. in the cell culture incubator, 20 μL of ^14C-citrate working solution is added to each well (final volume per well: 120 μL; final ^14C-citrate concentration ˜1.8 μM/well)).
After incubation over night at 37° C. in the cell culture incubator, the plates are sealed on the top using a transparent plastic foil and on the bottom using a white plastic foil. Following the sealing, the plate is placed into the TopCount NXT HTS and the signal is recorded.
The IC50 values of the compounds are calculated in IDBS XLfit by sigmoidal dose-response (variable slope).

pIC50	SMILES
7.46	O=C(NCc1ccccc1F)C1CCN(S(=O)(=O)c2cc(Cl)cc(Cl)c2)CC1 [(I-2)]
6.82	Cc1ccc(CNC(=O)C2CCN(S(=O)(=O)c3cc(Cl)cc(Cl)c3)CC2)nc1 [(I-15)]
7.00	CCOc1cc(Cl)cc(S(=O)(=O)N2CCC(C(=O)NCc3nccs3)CC2)c1 [(I-49)]
7.62	O=C(NCc1ccc(F)cc1)C1CCN(S(=O)(=O)c2cc(Cl)cc(Cl)c2)CC1 [(I-10)]
6.95	Cc1cnc(CNC(=O)C2CCN(S(=O)(=O)c3cc(Cl)cc(Cl)c3)CC2)s1 [(I-27)]
7.13	N#Cc1ccc(CNC(=O)C2CCN(S(=O)(=O)c3cc(Cl)cc(Cl)c3)CC2)cc1 [Example (I-1)]
6.63	O=C(NCc1ccc(F)cn1)C1CCN(S(=O)(=O)c2cc(Cl)cc(Cl)c2)CC1 [(I-20)]
6.34	O=C(NCc1ccccn1)C1CCN(S(=O)(=O)c2cc(Cl)cc(Cl)c2)CC1 [(I-11)]
7.66	O=C(NCc1ccc(Cl)cc1)C1CCN(S(=O)(=O)c2cc(Cl)cc(Cl)c2)CC1 [(I-5)]
6.83	Cc1cc(Br)cc(S(=O)(=O)N2CCC(C(=O)NCc3ccccn3)CC2)c1 [(I-61)]
